In article PMC3958783, “Molybdenum Reduction to Molybdenum Blue in Serratia sp. Strain DRY5 Is Catalyzed by a Novel Molybdenum-Reducing Enzyme” (BioMed Research International, 2014):
Where two headings read alike, the source gives them in different places.

Tests used:
Mo-reducing enzyme [1] = system: T1, Mo-reducing enzyme; assay: initial rates of Mo blue formation, absorbance at […] nm, nonlinear regression; assay type: biochemical, Serratia sp. DRY5; details: assay 50 mM citrate phosphate pH 5.0, room temperature, read-out: apparent Km
T1 construct: native protein purified from cytoplasmic fraction (Mono Q twice, Zorbax GF-250); monomer, 105 kDa by gel filtration, 100 kDa by SDS-PAGE

Mo-reducing enzyme [2] = molecular target: T1, Mo-reducing enzyme; assay: Mo blue formation assay, […] nm; assay type: biochemical, Serratia sp. DRY5; details: general reagent, assay with 12-MP and NADH; for IC50: read-out: Concentrations which decrease enzyme activity by 50%

NC(=O)C1=CN([C@@H]2O[C@H](COP(=O)(O)OP(=O)(O)OC[C@H]3O[C@@H](n4cnc5c(N)ncnc54)[C@H](O)[C@@H]3O)[C@@H](O)[C@H]2O)C=CC1 [NADH]
Km (Mo-reducing enzyme [1]; 15 mM 12-MP, electron donor): 790 µM

O=C(O)CN(CCN(CC(=O)O)CC(=O)O)CC(=O)O [EDTA]
IC50 (Mo-reducing enzyme [2]; metal chelator): 0.1 mM

CCCCCCCCCCCCOS(=O)(=O)O [SDS]
Concentrations which decrease enzyme activity by 50% (Mo-reducing enzyme [2]; denaturing detergent): 0.1%

OC(CS)C(O)CS (stereo not drawn) [DTT]
IC50 (Mo-reducing enzyme [2]; thiol): 10 mM

12-MP
Km (Mo-reducing enzyme [1]; 5 mM NADH, electron acceptor): 3870 µM

OCCS [2-Mercaptoethanol]
IC50 (Mo-reducing enzyme [2]; thiol): 5 mM
